{"source": "patent US20050037975A1", "about": "“Method for treatment of glutamate related disorders” (priority 1997, published 2005)", "key": {"MetSOX-induced seizures": {"tested_on": "MetSOX-induced seizures", "assay": "MetSOX-induced seizures in mice", "format": "in vivo", "method": "Animals—Male Swiss Webster mice (20-30 g) or male Sprague-Dawley rats (250-300 g) were used. All that employed animals were conducted in strict compliance with the NIH guidelines on animal use and institutional regulations concerning animal experimentation. Animals were exposed to hyperbaric oxygen in a specify designed press chamber as previously described (M. D. Faiman et al., Biochem. Pharmacol., 20, 3049-3067 (1971); M. D. Faiman et al. Aerosp. Med.,45, 29032.(1974)). The time to first clonic-tonic seizure after brining animals to a final pressure of five atmospheres of 100% oxygen or after intraperitoneal injection of convulsants was noted by. criteria outlined previously (M. D. Faiman et al. (1971), supra M. D. Faiman et al. (1974), supra). Unless otherwise specified, the ability of DETC-MeSO to prevent seizures was tested by intraperitoneal injection of 5.2 mg/kg of DETC-MeSO 1-2 hours prior to bringing the animal to a final pressure of 5 atmospheres of 100% oxygen or intraperitoneal injection of N-methyl-D-asparate (NMA) (125 mg/kg) r L-methionine sulfoximine (MetSOX) (250 mg/kg). Evaluation of the statistics for whole animal experiments or for changes in brain glutamate binding after administration of DETC-MeSO was conducted by use of the program GraphPAD InStat from Graph PAD Software (San Diego, Calif.)."}, "[1]": {"tested_on": "succinic semi-aldehyde dehydrogenase (SSA DH)", "assay": "In vitro inactivation of succinic semi-aldehyde dehydrogenase", "format": "biochemical", "method": "To test whether the protective effect of DETC-MeSO in hyperbaric O2-induced convulsions in mice could be due to inhibition of succinic semi-aldehyde dehydrogenase (SSA DH), mechanistically related to ALDH2, the sensitivity of SSA DH to inactivation by DETC-MeSO was determined. Potentially, inhibition of SSA DH in brain could offset the build up of ammonia known to occur and produce more GABA. In vitro both ALDH2 and SSA DH are inactivated by DETC-MeSO at 47 M-1 s-1 and 300 M-1 s-1, respectively."}, "[2]": {"assay": "Plasma acetaldehyde determination after ethanol challenge", "format": "in vivo, rat", "conditions": "10.3 mg/kg IP in polyethylene glycol 200, ethanol challenge 1 g/kg IP", "method": "Rats maintained as described in Ex. 4, fasted for 18 hours, were given 10.3 mg/kg of the DETC-Me SO intraperitoneally, dissolved in polyethylene glycol 200 and then challenged eight hours later with a dose of ethanol (1 g/kg; 20% v/v) also administered intraperitoneally. The rats were anesthetized with phenobarbital 30 minutes after alcohol administration and blood was taken by aortic puncture, being drawn into a heparinized syringe. Plasma acetaldehyde was determined by the method of C. O. P. Eriksson et al., Anal. Biochem., 80, 116 (1977). Plasma concentrations were determined based on a standard curve obtained with known concentrations of acetaldehyde. Control rats were treated with 1 ml/kg of polyethylene glycol 200."}, "[3]": {"assay": "Carbamoylation of glutathione by DETC-MeSO under physiological conditions", "source_text": "This rate of reaction was approximate an order of magnitude faster than that of the more familiar α-haloketone functionality."}, "[4]": {"tested_on": "brain glutamate receptors (synaptic membranes)", "assay": "Glutamate binding to synaptic membranes isolated from treated mice", "format": "in vivo, mouse", "method": "Binding Studies—Synaptic membranes (100 μg protein) were isolated (Y. H. Lee et al., J. Neurosci. Res. 40, 797-806 (1995)) form whole brain homogenate of male Swiss Webster mice and were incubated in 0.1 mM L-glutamate for 30 minutes at 25° C. After addition of 50 nM of [^3H]glutamate, incubation was continued for an additional 45 minutes. Reactions were terminated by centrifugation at 4° C. to separate membrane-bound from free radioactivity. Nonspecific binding (radioactivity bound in the presence of 0.5 mM unlabeled glutamate) averages: 20-30% of total radioactivity bound. The rate (k) and maximum percent blockage of glutamate binding (M) by DETC-MeSO (1) during the incubation time (t) was determined by fitting the equation [% inhibition]=M(1−e^−kh) to these day by use of the program Grafit (Erithicus Software Ltd.). This equation was derived for first-order inactivation by a group specific reagent that gives a partial effect. If “A” is the percent of binding activity that remains after extensive exposure (t=of the receptor to excess DETC-MeSO, then M=100−A)e^−kh+A; substituting (100−M) for “A” and [100−% inhibition] for “a” in this equation gives the one employed for purposes of data analyses. […] A second equation was employed in the analysis of binding data that defines partial, irreversible inactivation of two distinct groups of receptors [% inhibition]=M1(1−e^−k1^IT)+M2(1−e^−k1^IT), where M1 and M2 are the maximum amount of inhibition obtained for complete modification of each receptor population and k1 and k2 are the rate constants for these modifications, respectively.\nSynaptic membranes were prepared from the brains of mice injected with DETC-MeSO (5.2 mg/kg, i.p.). The ability of synaptic membrane preparations isolated from DETC-MeSO-treated mice to bind glutamate was compared with similar preparations isolated from control animals. FIG. 3(A) illustrates the results obtained from synaptic membranes prepared from brains of mice killed two hours after a single dose of DETC-MeSO, or two hours after the last injection of multiple consecutive doses (5.2 mg/kg, i.p., daily for seven days). Either single or multiple dosing with DETC-MeSO reduced the capacity of synaptic membranes to bind glutamate by approximately 50%, the maximum effect obtained in vitro (FIG. 3). Each bar represents the average of results obtained from four animals and the error bars are for one standard deviation."}}, "note": "Marks after values point to notes of the source that are not given here."}
{"smiles": "CCN(CC)C(=O)[S+](C)[O-]", "note": "(stereo not drawn) [DETC-MeSO, S-Methyl-N,N-Diethylthiolcarbamate Sulfoxide]", "values": [{"measurement": "effect on time free of MetSOX seizures", "setting": "MetSOX-induced seizures", "result": "more than doubled"}, {"measurement": "mean time to seizure", "setting": "MetSOX-induced seizures; MetSOX 250 mg/kg, 5.2 mg/kg i.p. 1-2 hours prior, ± standard error", "result": "307 ± 60", "unit": "min"}, {"measurement": "number of animals that exhibited the effect/total number of animals in the group", "setting": "MetSOX-induced seizures; MetSOX 250 mg/kg, observation six hours", "result": "(6/8)^a"}, {"measurement": "inactivation rate of SSA DH", "setting": "[1]", "result": 300, "unit": "M⁻¹ s⁻¹"}, {"measurement": "plasma acetaldehyde", "setting": "[2]", "result": "approximately 900 μM"}, {"measurement": "rate of carbamoylation of the sulfhydryl group of glutathione (GSH)", "setting": "[3]; 37° C., pH 7", "result": 10, "unit": "M⁻¹ s⁻¹"}, {"measurement": "conversion to DETC-GS", "setting": "[3]; GSH 1-6 mM, within 5 minutes", "result": "> 95", "unit": "%"}, {"measurement": "DETC-MeSO remaining", "setting": "[3]; blood, GSH 1 mM, after 5 minutes", "result": "less than 5%"}, {"measurement": "DETC-MeSO remaining", "setting": "[3]; liver, after one minute", "result": "less than 3%"}, {"measurement": "irreversible brain glutamate receptor blockage", "setting": "[4]; 30 μmol/kg intravenous, mice", "result": "38.2±1.6", "unit": "%"}, {"measurement": "reduction of capacity of synaptic membranes to bind glutamate", "setting": "[4]; 5.2 mg/kg i.p. daily for seven days, killed two hours after last injection", "result": "approximately 50%"}, {"measurement": "inhibition of glutamate binding", "setting": "[4]; single dose 5.2 mg/kg i.p., killed 24 hours after", "result": "less inhibition"}, {"measurement": "reduction of capacity of synaptic membranes to bind glutamate", "setting": "[4]; single dose 5.2 mg/kg i.p., killed two hours after", "result": "approximately 50%"}]}
